Reference: patent US20240262801A1, “COMPOUNDS HAVING 5-(2-FLUORO-6-HYDROXYPHENYL)-1,2,5-THIADIAZOLIDIN-3-ONE 1,1-DIOXIDE AS INHIBITORS OF PROTEIN KINASE PHOSPHATASE ENZYMES” (Ness Therapeutics, Inc., priority 2021, published 2024)
Counter-ions that a name gives are not always drawn. Like-named read-outs stand apart in the source and are kept apart here.

Key:
[1] = test system: B16F10 mouse melanoma cells; test: Tumor cells B16F10 cellular growth IFNγ-induced inhibition assay (CellTiter-Glo); assay type: cell-based; details: for IC50: B16-F10, 72 h, 3 days incubation; for inhibition at 100 µM: B16-F10, B16F10, 100 μM compound; for inhibition at 40 µM: B16-F10, B16F10, 40 μM compound
Description: B16F10 mouse melanoma cells (ATCC Cat #CRL-6475) were seeded at a density of 500 cells per well in a 384-well clear bottom plate (Corning Cat #3712, Corning, N.Y.) in 40 μL total volume of DMEM+10% FBS (PanEco Cat #C420, Russia and Sigma Cat #F4135, St. Louis, Mo.). Cells were allowed to adhere overnight at 37° C., 5% CO2. On the following day, 250× solutions of compounds in DMSO (Sigma Cat #D2650) were prepared into […] plate (Diamond Well Plate, Axigen, Cat #P-384-120SQ-C-S) (final concentration of 1×) and DMSO only controls were included. Dilution Plate (Diamond Well Plate (Axigen, Cat #P-384-120SQ-C-S) was prepared by adding 49 μL of culture medium per well: half of the plate with culture medium only, half with culture medium+IFNγ (5 ng/ml). A 1 μL aliquot of 250× compounds ([…] plate) was added to 49 μL of culture medium (Dilution plate), then a 10 μL aliqut of the mixture was transferred to Reaction plate with 40 μL of cells followed by centrifugation at 240 g for 1 min. After 3 days of incubation, 10 μL of CellTiter-Glo (Promega) was added to the cells, plates were centrifuged at 240 g for 1 min, and luminescence signal was measured. For each compound, the percent growth inhibition at every compound dose level was calculated relative to the “DMSO/with IFNγ” control and used to determine the IC50.

GST-tagged PTPN2 protein = molecular target: T1, GST-tagged PTPN2 protein (Homo sapiens, UniProt P17706); test: Primary assay of PTPN2 enzymatic activity inhibition (DiFMUP fluorescence); assay type: biochemical; details: DiFMUP substrate 2 μM, 60 min at RT
T1 construct: purchased ActiveMotif 31592
T1 sequence (P17706 with tags, fused parts or gaps): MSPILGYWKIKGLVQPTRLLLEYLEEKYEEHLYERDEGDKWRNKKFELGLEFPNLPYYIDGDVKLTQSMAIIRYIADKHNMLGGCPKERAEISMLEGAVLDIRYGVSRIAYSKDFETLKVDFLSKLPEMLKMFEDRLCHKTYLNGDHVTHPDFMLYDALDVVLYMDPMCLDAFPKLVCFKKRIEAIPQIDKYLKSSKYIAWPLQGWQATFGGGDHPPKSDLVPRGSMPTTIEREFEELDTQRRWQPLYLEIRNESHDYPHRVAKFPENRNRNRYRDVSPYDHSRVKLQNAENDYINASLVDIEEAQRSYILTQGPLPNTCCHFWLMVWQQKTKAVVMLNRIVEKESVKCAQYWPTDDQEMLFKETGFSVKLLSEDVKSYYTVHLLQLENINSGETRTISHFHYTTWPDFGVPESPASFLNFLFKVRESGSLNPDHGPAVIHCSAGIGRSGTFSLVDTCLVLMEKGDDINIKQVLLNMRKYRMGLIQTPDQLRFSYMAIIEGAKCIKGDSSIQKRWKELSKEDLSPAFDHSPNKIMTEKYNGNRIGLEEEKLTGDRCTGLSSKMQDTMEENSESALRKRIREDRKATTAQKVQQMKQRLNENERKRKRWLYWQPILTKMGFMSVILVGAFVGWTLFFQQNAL
Description: Compound activity was determined using GST-tagged PTPN2 protein (Cat #31592, ActiveMotif) (SEQ ID NO: 1) in an in vitro enzymatic reaction. The enzymatic reaction was carried out in assay buffer (50 mM HEPES Na salt pH 7.2-7.4, 2 mM EDTA, 100 mM NaCl, 52 ng/μL BSA, and 6 mM DTT). The compounds were dispensed on a 384 well Diamond Well Plate (Axigen, Cat #P-384-120SQ-C-S) using the Biomek FX liquid handling system at 100× solutions of compounds in DMSO. 2× PTPN2 (final concentration 0.004 ng/μL) was prepared in 1× Assay buffer and 25 μL of mixture per well was added into Reaction plate (Optiplate, black, Perkin Elmer, Cat #6007270). Add 25 μL of 1× buffer to Ctrl- (Substrate w/o PTPN2) wells followed by centrifugation at 100 g for 1 min. Next step the Compounds were added to Reaction plate using Biomek station via following steps: 3 ul of 100× compounds (in DMSO) were mixed with 27 μL of Assay Buffer, then 5 μL of this mixture was added to Reaction plate with 25 μL of PTPN2 Mix. Plates were centrifuged for 1 min at 100 g and incubated for another 10 minutes at room temperature. Finally, 20 μL of 2.5× Substrate (DiFUMP, Invitrogen™ Cat #D6567) mix was added into appropriate wells of Reaction plate to the final concentration of 2 μM, plate was centrifuged at 100 g for 1 min followed by incubation at RT for 60 min, and the Fluorescence Intensity was measured using a Microplate Reader (ClarioStar Plus, excitation 360 nm, emission 450 nm). The % inhibition was then used to calculate the IC50 values. The IC50 values are shown in Table A1, wherein “A” corresponds to IC50<5.0 nm, “B” corresponds to 5.0 nm≤IC50<10.0 nm, “C” corresponds to 10.0 nm≤IC50<50.0 nm, “D” corresponds to 50.0 nm≤IC50<100.0 nm, and “E” corresponds to 100.0 nm≤IC50<500.0 nm, and “F” corresponds to 500.0 nm≤IC50.

[2] = B16F10, + IFNγ, read-out: IC50 + IFNγ
[3] = B16F10, no IFNγ, read-out: IC50 no IFNγ
[4] = + IFNγ, read-out: % Growth Inhibition at 100 μM + IFNγ
[5] = no IFNγ, read-out: % Growth Inhibition at 100 μM no IFNγ

| Compound | IC50 [1, 2] [nM] | IC50 [1, 3] [nM] | IC50 (GST-tagged PTPN2 protein) [nM] | inhibition at 100 µM [1, 4] [%] | inhibition at 100 µM [1, 5] [%] | inhibition at 40 µM ([1]; + IFNγ, read-out: % Growth Inhibition + IFNγ @ 40 μM) [%] | inhibition at 40 µM ([1]; no IFNγ, read-out: % Growth Inhibition no IFNγ @ 40 μM) [%] |
| --- | --- | --- | --- | --- | --- | --- | --- |
| Cc1ccccc1S(=O)(=O)Nc1cc(O)c(N2CC(=O)NS2(=O)=O)c(F)c1 [Example 23, N-[4-(1,1-dioxido-4-oxo-1,2,5-thiadiazolidin-2-yl)-3-fluoro-5-hydroxyphenyl]-2-methylbenzenesulfonamide] | 50000 to 100000 | ≥ 100000 | 50 to 100 | 50 to 75 | 10 to 50 |  |  |
| Cc1ccc(-c2cc(O)c(N3CC(=O)NS3(=O)=O)c(F)c2)cc1 [Example 10, 5-(3-fluoro-5-hydroxy-4′-methylbiphenyl-4-yl)-1,2,5-thiadiazolidin-3-one 1,1-dioxide] |  |  | 100 to 500 |  |  |  |  |
| O=C1CN(c2c(O)cc(NC(=O)Nc3ccccc3Cl)cc2F)S(=O)(=O)N1 [Example 48, 1-(2-chlorophenyl)-3-[4-(1,1-dioxido-4-oxo-1,2,5-thiadiazolidin-2-yl)-3-fluoro-5-hydroxyphenyl]urea] | ≥ 100000 | ≥ 100000 | 5 to 10 | 10 to 50 | 10 to 50 |  |  |
| CN(c1ccccc1)S(=O)(=O)Nc1cc(O)c(N2CC(=O)NS2(=O)=O)c(F)c1 [Example 31, N′-[4-(1,1-dioxido-4-oxo-1,2,5-thiadiazolidin-2-yl)-3-fluoro-5-hydroxyphenyl]-N-methyl-N-phenylsulfuric diamide] |  |  | 10 to 50 |  |  |  |  |
| COc1ccc(S(=O)(=O)Nc2cc(O)c(N3CC(=O)NS3(=O)=O)c(F)c2)cc1 [Example 25, N-[4-(1,1-dioxido-4-oxo-1,2,5-thiadiazolidin-2-yl)-3-fluoro-5-hydroxyphenyl]-4-methoxybenzenesulfonamide] | 10000 to 50000 | ≥ 100000 | 10 to 50 | 50 to 75 | 10 to 50 |  |  |
| O=C1CN(c2c(O)cc(NC(=O)NCC3CCCO3)cc2F)S(=O)(=O)N1 (centres unmarked) [Example 57, 1-[4-(1,1-dioxido-4-oxo-1,2,5-thiadiazolidin-2-yl)-3-fluoro-5-hydroxyphenyl]-3-(tetrahydrofuran-2-ylmethyl)urea] | 10000 to 50000 | ≥ 100000 | 10 to 50 | 50 to 75 | 10 to 50 |  |  |
| O=C1CN(c2c(O)cc(NC(=O)Nc3cccc(Cl)c3)cc2F)S(=O)(=O)N1 [Example 46, 1-(3-chlorophenyl)-3-[4-(1,1-dioxido-4-oxo-1,2,5-thiadiazolidin-2-yl)-3-fluoro-5-hydroxyphenyl]urea] | ≥ 100000 | ≥ 100000 | < 5 | 10 to 50 | 10 to 50 |  |  |
| O=C1CN(c2c(O)cc(NC(=O)Nc3ccc(N4CCNCC4)cc3)cc2F)S(=O)(=O)N1 [Example 67, 1-[4-(1,1-dioxido-4-oxo-1,2,5-thiadiazolidin-2-yl)-3-fluoro-5-hydroxyphenyl]-3-[4-(piperazin-1-yl)phenyl]urea hydrochloride] |  |  | < 5 |  |  |  |  |
| COc1ccc(NC(=O)Nc2cc(O)c(N3CC(=O)NS3(=O)=O)c(F)c2)cc1C(F)(F)F [Example 68, 1-[4-(1,1-dioxido-4-oxo-1,2,5-thiadiazolidin-2-yl)-3-fluoro-5-hydroxyphenyl]-3-[4-methoxy-3-(trifluoromethyl)phenyl]urea] |  |  | < 5 |  |  |  |  |
| CC(C)(C)OC(=O)N1CCN(c2ccc(NC(=O)Nc3cc(O)c(N4CC(=O)NS4(=O)=O)c(F)c3)cc2)CC1 [Example 66, tert-butyl 4-[4-({[4-(1,1-dioxido-4-oxo-1,2,5-thiadiazolidin-2-yl)-3-fluoro-5-hydroxyphenyl]carbamoyl}amino)phenyl]piperazine-1-carboxylate] |  |  | < 5 |  |  |  |  |
| Cc1cccc(-c2cc(O)c(N3CC(=O)NS3(=O)=O)c(F)c2)c1 [Example 9, 5-(3-fluoro-5-hydroxy-3′-methylbiphenyl-4-yl)-1,2,5-thiadiazolidin-3-one 1,1-dioxide] |  |  | 100 to 500 |  |  |  |  |
| O=C1CN(c2c(O)cc(NC(=O)Nc3ccc(N4CCOCC4)cc3)cc2F)S(=O)(=O)N1 [Example 65, 1-[4-(1,1-dioxido-4-oxo-1,2,5-thiadiazolidin-2-yl)-3-fluoro-5-hydroxyphenyl]-3-[4-(morpholin-4-yl)phenyl]urea] |  |  | < 5 |  |  |  |  |
| CC(C)c1ccc(NC(=O)Nc2cc(O)c(N3CC(=O)NS3(=O)=O)c(F)c2)cc1 [Example 70, 1-[4-(1,1-dioxido-4-oxo-1,2,5-thiadiazolidin-2-yl)-3-fluoro-5-hydroxyphenyl]-3-[4-(propan-2-yl)phenyl]urea] |  |  | < 5 |  |  |  |  |

Now from value to compound, other results behind:

| IC50 [1, 2] [nM] | IC50 [1, 3] [nM] | IC50 (GST-tagged PTPN2 protein) [nM] | Compound | inhibition at 100 µM [1, 4] [%] | inhibition at 100 µM [1, 5] [%] | inhibition at 40 µM ([1]; + IFNγ, read-out: % Growth Inhibition + IFNγ @ 40 μM) [%] | inhibition at 40 µM ([1]; no IFNγ, read-out: % Growth Inhibition no IFNγ @ 40 μM) [%] |
| --- | --- | --- | --- | --- | --- | --- | --- |
| ≥ 100000 | ≥ 100000 | 10 to 50 | CC(C)(C)c1ccc(S(=O)(=O)Nc2cc(O)c(N3CC(=O)NS3(=O)=O)c(F)c2)cc1 [Example 24, 4-tert-butyl-N-[4-(1,1-dioxido-4-oxo-1,2,5-thiadiazolidin-2-yl)-3-fluoro-5-hydroxyphenyl]benzenesulfonamide] | 50 to 75 | 10 to 50 |  |  |
| 50000 to 100000 | ≥ 100000 | 5 to 10 | O=C1CN(c2c(O)cc(NC(=O)Nc3ccc(C(F)(F)F)cc3)cc2F)S(=O)(=O)N1 [Example 41, 1-[4-(1,1-dioxido-4-oxo-1,2,5-thiadiazolidin-2-yl)-3-fluoro-5-hydroxyphenyl]-3-[4-(trifluoromethyl)phenyl]urea] | 50 to 75 | 10 to 50 |  |  |
| 10000 to 50000 | 10000 to 50000 | 100 to 500 | COc1ccc(C(=O)Nc2cc(O)c(N3CC(=O)NS3(=O)=O)c(F)c2)cc1 [Example 15, N-[4-(1,1-dioxido-4-oxo-1,2,5-thiadiazolidin-2-yl)-3-fluoro-5-hydroxyphenyl]-4-methoxybenzamide] |  |  | 10 to 50 | 10 to 50 |
|  |  | 10 to 50 | CN(C1CCCCC1)S(=O)(=O)Nc1cc(O)c(N2CC(=O)NS2(=O)=O)c(F)c1 [Example 32, N-cyclohexyl-N′-[4-(1,1-dioxido-4-oxo-1,2,5-thiadiazolidin-2-yl)-3-fluoro-5-hydroxyphenyl]-N-methylsulfuric diamide] |  |  |  |  |
|  |  | 10 to 50 | O=C1CN(c2c(O)cc(NC(=O)NCc3ccccc3)cc2F)S(=O)(=O)N1 [Example 60, 1-benzyl-3-[4-(1,1-dioxido-4-oxo-1,2,5-thiadiazolidin-2-yl)-3-fluoro-5-hydroxyphenyl]urea] |  |  |  |  |
|  |  | < 5 | O=C1CN(c2c(O)cc(NC(=O)Nc3ccc(OC(F)(F)F)cc3)cc2F)S(=O)(=O)N1 [Example 71, 1-[4-(1,1-dioxido-4-oxo-1,2,5-thiadiazolidin-2-yl)-3-fluoro-5-hydroxyphenyl]-3-[4-(trifluoromethoxy)phenyl]urea] |  |  |  |  |
|  |  | < 5 | O=C1CN(c2c(O)cc(NC(=O)Nc3ccccc3F)cc2F)S(=O)(=O)N1 [Example 93, 1-[4-(1,1-dioxido-4-oxo-1,2,5-thiadiazolidin-2-yl)-3-fluoro-5-hydroxyphenyl]-3-(2-fluorophenyl)urea] |  |  |  |  |
|  |  | ≥ 500 | Cc1ccccc1-c1cc(O)c(N2CC(=O)NS2(=O)=O)c(F)c1 [Example 6, 5-(3-fluoro-5-hydroxy-2′-methylbiphenyl-4-yl)-1,2,5-thiadiazolidin-3-one 1,1-dioxide] |  |  |  |  |
